{"source": "ChEMBL document CHEMBL1681726", "about": "“Discovery of orally available tetrahydroquinoline-based glucocorticoid receptor agonists” (Bioorg Med Chem Lett, 2011)", "key": {"[1]": {"molecular_target": "T1, Glucocorticoid receptor (Homo sapiens, UniProt P04150)", "T1 sequence (P04150 whole entry)": "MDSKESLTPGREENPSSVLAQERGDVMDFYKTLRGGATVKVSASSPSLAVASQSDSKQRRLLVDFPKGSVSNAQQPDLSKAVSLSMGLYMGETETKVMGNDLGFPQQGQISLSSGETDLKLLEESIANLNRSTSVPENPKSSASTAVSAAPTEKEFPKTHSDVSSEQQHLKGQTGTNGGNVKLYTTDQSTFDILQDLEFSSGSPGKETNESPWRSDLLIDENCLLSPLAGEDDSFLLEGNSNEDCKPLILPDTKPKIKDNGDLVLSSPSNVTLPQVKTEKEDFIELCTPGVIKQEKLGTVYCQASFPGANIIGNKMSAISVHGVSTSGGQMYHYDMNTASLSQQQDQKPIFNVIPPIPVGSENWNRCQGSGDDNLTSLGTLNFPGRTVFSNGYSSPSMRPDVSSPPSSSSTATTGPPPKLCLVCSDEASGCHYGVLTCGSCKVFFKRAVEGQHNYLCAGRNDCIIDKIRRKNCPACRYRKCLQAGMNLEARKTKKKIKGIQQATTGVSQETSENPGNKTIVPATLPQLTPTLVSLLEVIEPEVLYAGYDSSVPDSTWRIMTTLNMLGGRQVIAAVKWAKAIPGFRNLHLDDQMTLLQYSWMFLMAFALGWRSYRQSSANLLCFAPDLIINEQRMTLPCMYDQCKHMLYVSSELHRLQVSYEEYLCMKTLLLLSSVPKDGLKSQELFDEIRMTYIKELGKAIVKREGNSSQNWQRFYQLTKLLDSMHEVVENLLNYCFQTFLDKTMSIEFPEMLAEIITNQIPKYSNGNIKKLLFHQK", "test": "Displacement of radiolabeled Dexamethasone from GR"}, "[2]": {"molecular_target": "T1, Glucocorticoid receptor", "test": "Agonist activity at human GR expressed in NHDF cells assessed as inhibition of IL-6 production by ELISA relative to Dexamethasone", "type": "functional, cell-based"}, "[3]": {"molecular_target": "T2, Progesterone receptor (Homo sapiens, UniProt P06401)", "T2 sequence (P06401 whole entry)": "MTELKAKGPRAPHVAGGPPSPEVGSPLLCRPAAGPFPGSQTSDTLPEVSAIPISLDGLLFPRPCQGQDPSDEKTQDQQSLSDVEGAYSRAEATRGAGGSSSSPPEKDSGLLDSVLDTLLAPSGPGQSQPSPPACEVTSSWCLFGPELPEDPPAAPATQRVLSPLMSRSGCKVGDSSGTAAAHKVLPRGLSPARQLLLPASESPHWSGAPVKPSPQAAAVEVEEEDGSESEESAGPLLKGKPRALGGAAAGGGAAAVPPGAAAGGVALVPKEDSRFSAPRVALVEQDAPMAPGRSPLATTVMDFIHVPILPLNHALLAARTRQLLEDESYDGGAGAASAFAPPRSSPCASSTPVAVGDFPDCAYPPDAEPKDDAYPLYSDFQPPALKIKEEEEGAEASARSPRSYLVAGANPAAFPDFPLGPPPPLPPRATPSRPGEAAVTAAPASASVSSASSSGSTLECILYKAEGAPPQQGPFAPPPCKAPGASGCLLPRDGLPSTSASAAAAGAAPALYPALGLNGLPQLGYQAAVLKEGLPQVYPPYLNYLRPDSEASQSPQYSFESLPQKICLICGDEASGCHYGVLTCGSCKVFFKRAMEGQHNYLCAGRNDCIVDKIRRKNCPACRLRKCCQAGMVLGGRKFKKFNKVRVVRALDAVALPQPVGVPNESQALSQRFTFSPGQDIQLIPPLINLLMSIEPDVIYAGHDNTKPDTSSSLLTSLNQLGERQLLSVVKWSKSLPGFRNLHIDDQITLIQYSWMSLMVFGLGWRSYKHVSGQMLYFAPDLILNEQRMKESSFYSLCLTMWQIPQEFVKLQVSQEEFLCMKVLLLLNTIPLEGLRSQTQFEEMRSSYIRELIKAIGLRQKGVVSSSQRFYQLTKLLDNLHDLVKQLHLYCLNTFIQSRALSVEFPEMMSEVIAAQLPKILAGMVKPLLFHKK", "test": "Binding affinity to PR"}, "[4]": {"molecular_target": "T3, Androgen receptor (Homo sapiens, UniProt P10275)", "T3 sequence (P10275 whole entry)": "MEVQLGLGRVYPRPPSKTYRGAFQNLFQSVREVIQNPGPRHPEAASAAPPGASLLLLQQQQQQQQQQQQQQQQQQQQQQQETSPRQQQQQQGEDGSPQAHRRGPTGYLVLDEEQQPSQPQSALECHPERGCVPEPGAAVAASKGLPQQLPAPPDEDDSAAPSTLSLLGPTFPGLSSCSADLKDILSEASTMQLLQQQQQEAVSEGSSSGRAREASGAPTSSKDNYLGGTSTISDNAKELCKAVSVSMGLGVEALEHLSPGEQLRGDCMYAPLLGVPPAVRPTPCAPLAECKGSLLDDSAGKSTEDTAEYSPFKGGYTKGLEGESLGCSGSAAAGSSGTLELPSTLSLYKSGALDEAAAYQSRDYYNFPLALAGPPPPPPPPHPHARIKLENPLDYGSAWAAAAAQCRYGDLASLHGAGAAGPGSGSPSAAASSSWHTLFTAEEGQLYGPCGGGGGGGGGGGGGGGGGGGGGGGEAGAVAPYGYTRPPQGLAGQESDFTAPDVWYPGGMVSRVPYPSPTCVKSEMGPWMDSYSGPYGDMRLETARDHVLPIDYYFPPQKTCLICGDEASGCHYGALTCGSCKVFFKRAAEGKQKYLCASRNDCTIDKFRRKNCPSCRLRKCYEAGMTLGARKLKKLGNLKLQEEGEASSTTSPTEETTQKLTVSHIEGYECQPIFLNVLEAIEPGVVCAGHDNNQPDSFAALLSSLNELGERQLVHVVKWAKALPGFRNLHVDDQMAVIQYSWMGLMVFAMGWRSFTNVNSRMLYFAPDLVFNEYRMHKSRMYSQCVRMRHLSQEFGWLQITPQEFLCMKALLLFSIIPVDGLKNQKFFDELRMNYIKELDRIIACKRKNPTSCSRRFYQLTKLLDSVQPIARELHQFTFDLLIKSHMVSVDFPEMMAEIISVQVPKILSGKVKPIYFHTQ", "test": "Binding affinity to AR"}, "[5]": {"test": "Selectivity ratio of Ki for GR to Ki for PR"}, "[6]": {"test": "Selectivity ratio of Ki for GR to Ki for MR"}, "[7]": {"test": "AUC in Sprague-Dawley rat at 30 mg/kg, po", "type": "ADME, organism-based", "design": "dose 30 mg/kg, route oral", "conditions": "plasma"}, "[8]": {"test": "Apparent half life in Sprague-Dawley rat at 30 mg/kg, po", "type": "ADME, organism-based", "design": "dose 30 mg/kg, route oral", "conditions": "in vivo"}, "[9]": {"system": "Mus musculus", "test": "Antiinflammatory activity in po dosed mouse assessed as carrageenan-induced hind paw edema measured after 3 hrs post dose", "type": "functional"}}, "data": [{"smiles": "C[C@H]1c2c(cc(F)c(-c3cccc4cc[nH]c34)c2F)NC(C)(C)[C@@H]1O", "note": "(racemic)", "values": [{"measurement": "Ki", "setting": "[1]", "value": 0.0025, "unit": "µM"}, {"measurement": "IC50", "setting": "[2]", "value": 0.011, "unit": "µM"}, {"measurement": "Ki", "setting": "[3]", "value": 2.1, "unit": "µM"}, {"measurement": "Ki", "setting": "[4]", "value": 1.43, "unit": "µM"}, {"measurement": "Ratio Ki", "setting": "[5]", "value": "> 500"}, {"measurement": "Ratio Ki", "setting": "[6]", "value": "> 500"}, {"measurement": "AUC", "setting": "[7]", "value": 35000, "unit": "ng·h/mL"}, {"measurement": "half-life", "setting": "[8]", "value": 3.2, "unit": "h"}, {"measurement": "ED50", "setting": "[9]", "value": 6.6, "unit": "mg/kg"}]}]}
